According to the supplement of paper PMC12317010:

Assay: collision cross section in nitrogen (drift tube, single-field); higher = larger gas-phase ion size
[1] = ion type: [M+H], ion source: APCI, ion mode: Positive
[2] = ion type: [M+H], ion source: ESI, ion mode: Positive
[3] = ion type: [M+], ion source: APCI, ion mode: Positive
[4] = ion type: [M+Na], ion source: ESI, ion mode: Positive
[5] = ion type: [M-H], ion source: ESI, ion mode: Negative
[6] = ion source: ESI, ion mode: Positive, ion type: [M]+ (permanent cation)
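Note: chemical standards at 10 µM analysed by drift tube IMS-QTOF MS in about 3.95 torr nitrogen, mean of duplicate injections differing ≤1%, mass error below 10 ppm.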

| Compound | collision cross section in nitrogen [4] | collision cross section in nitrogen [5] | also measured |
| --- | --- | --- | --- |
| CCOP(=S)(OCC)Oc1cc(C)nc(C(C)C)n1 [Diazinon] |  |  | collision cross section in nitrogen [1]: 173.5 Å²; collision cross section in nitrogen [2]: 173.7 Å² |
| c1ccc(N=NNc2ccccc2)cc1 [Diazoaminobenzene] |  |  | collision cross section in nitrogen [2]: 147 Å² |
| O=C1C(N(CO)C(=O)NCO)N(CO)C(=O)N1CO (centres undefined) [Diazolidinyl urea] |  |  | collision cross section in nitrogen [1]: 162.8 Å² |
| c1ccc2c(c1)ccc1cc3c(ccc4ccccc43)cc12 [Dibenz[a,h]anthracene] |  |  | collision cross section in nitrogen [3]: 160 Å² |
| c1ccc2c(c1)sc1ccccc12 [Dibenzothiophene] |  |  | collision cross section in nitrogen [3]: 130.2 Å² |
| c1ccc(CNCc2ccccc2)cc1 [Dibenzylamine] |  |  | collision cross section in nitrogen [1]: 150.8 Å²; collision cross section in nitrogen [2]: 149.6 Å² |
| CCCCOC(=O)c1ccccc1C(=O)OCCCC [Dibutyl 1,2-benzenedicarboxylate] | 182.9 Å² |  |  |
| CCCCOP(=O)(CCCC)OCCCC [Dibutyl butylphosphonate] | 181.8 Å² |  |  |
| Nc1c(Cl)cc([N+](=O)[O-])cc1Cl [Dichloran] |  | 131 Å² |  |
| Oc1ccc(Cl)cc1Cc1cc(Cl)ccc1O [Dichlorophen] |  | 155.8 Å² |  |
| CCOc1nc(F)cc2nc(S(=O)(=O)Nc3c(Cl)cccc3Cl)nn12 [Diclosulam] | 194 Å² | 183 Å² | collision cross section in nitrogen [1]: 184.6 Å²; collision cross section in nitrogen [2]: 183.5 Å² |
| COP(=O)(OC)O/C(C)=C/C(=O)N(C)C [Dicrotophos] | 153.2 Å² |  | collision cross section in nitrogen [1]: 150.2 Å² |
| O=C(CC(C(=O)OC1CCCCC1)S(=O)(=O)O)OC1CCCCC1 (centres undefined) [Dicyclohexyl sodium sulfosuccinate] |  | 188.4 Å² |  |
| C1CCC(NC2CCCCC2)CC1 [Dicyclohexylamine] |  |  | collision cross section in nitrogen [1]: 147.6 Å²; collision cross section in nitrogen [2]: 146.9 Å² |
| O=c1[nH]cnc2c1ncn2[C@H]1CC[C@@H](CO)O1 [Didanosine] |  | 153.5 Å² |  |
| CCCCCCCCCC[N+](C)(C)CCCCCCCCCC [Didecyldimethylammonium chloride] |  |  | collision cross section in nitrogen (ion source: APCI, ion mode: Positive, ion type: [M]+ (permanent cation)): 208.2 Å²; collision cross section in nitrogen [6]: 209.1 Å² |
| CCCCCCCCCCCC[N+](C)(C)CCCCCCCCCCCC [Didodecyldimethylammonium bromide] |  |  | collision cross section in nitrogen [6]: 225.6 Å² |
| CCOP(=O)(CN(CCO)CCO)OCC [Diethyl (N,N-bis(2-hydroxyethyl)amino)methanephosphonate] | 156.5 Å² | 157.5 Å² | collision cross section in nitrogen [1]: 153.5 Å²; collision cross section in nitrogen [2]: 153.9 Å² |
| CCOP(=O)(O)OCC [Diethyl hydrogen phosphate] |  | 129.2 Å² |  |

Second part, led by results:

| collision cross section in nitrogen [4] | Compound | collision cross section in nitrogen [5] | also measured |
| --- | --- | --- | --- |
| 180.8 Å² | CCCCOC(=O)CCCCC(=O)OCCCC [Dibutyl adipate] |  |  |
| 191.2 Å² | CCCCOC(=O)CCCCCCCC(=O)OCCCC [Dibutyl azelate] | 176 Å² |  |
| 193.5 Å² | CCCCOC(=O)CCCCCCCCC(=O)OCCCC [Dibutyl decanedioate] |  |  |
| 177.1 Å² | CCOc1ccc(NC(=O)OC(C)C)cc1OCC [Diethofencarb] | 171.9 Å² |  |
| 171.5 Å² | CCOC(=O)CCCCCCCCC(=O)OCC [Diethyl decanedioate] |  |  |
| 146.8 Å² | CCOC=C(C(=O)OCC)C(=O)OCC [Diethyl ethoxymethylenemalonate] |  |  |
| 180.8 Å² | O=C(OCCOCCOC(=O)c1ccccc1)c1ccccc1 [Diethylene glycol dibenzoate] |  |  |
